Patent US11518760B2 (Liverpool School of Tropical Medicine, priority 2017, dated 2022)

Tests used:
[1] = tested on: Wolbachia of the target parasite, Brugia malayi; test: In vitro microfilariae (Mf) Brugia malayi screen, wsp/gst qPCR; assay type: cell-based; details: B. malayi Mf, 6 days
Experimental: An in vitro microfilariae (Mf) assay was used to screen against Wolbachia of the target parasite, Brugia malayi. The Mf were obtained by peritoneal lavage of gerbils (Meriones unguiculatus) harbouring a patent infection of Brugia malayi as described previously (Griffiths et al., 2010, Lab Animal).
Mf were purified using a PD-10 desalting column (Fisher) followed by centrifugation (1200 rpm for 5 minutes at room temperature) then re-suspended in filter-sterilised culture medium consisting of RPMI supplemented with heat-inactivated Foetal Calf Serum (HI-FCS), 1% Penicillin-Streptomycin and 1% Amphotericin B.
After determining the concentration of Mf, the stock solution was diluted in culture medium to ensure a final concentration of 8000 Mf/well of a 96 well plate (100 μl per well). Compounds to be tested (10 mM stock in 100% DMSO) were diluted to appropriate working concentrations in culture medium and 100 μl was added to the appropriate wells of the 96 well plate containing the Mf. Five replicates were used for each compound and each plate contained doxycycline (5 μM) and vehicle (DMSO) controls. The plates were incubated at 37° C., 5% CO2, for 6 days.
On day 6, a visual assessment of motility was performed and wells scored from 0 to 4 (where 0=no movement and 4=highly motile) in order to assess whether there were any direct effects against the Mf. To perform the anti-Wolbachia readout, DNA was extracted from each individual well using the QIAmp DNA Mini Kit (Qiagen) ‘DNA Purification from Tissues’ protocol.
The number of Wolbachia present in Mf was assessed by quantification of the Wolbachia surface protein (wsp) gene copy number and normalised to the nematode glutathione S-transferase (gst) gene by qPCR based on methods described by McGarry et al., 2004, Mol Biochem Parasitol. DNA samples were amplified in duplicate in the following 20 μl reactions containing 1× QuantiTect SYBR Green PCR master mix (Qiagen): for wsp, 0.3 μM each of forward ([…]) and reverse ([…]) primer, 3 mM MgCl2 and 2 μl of DNA. For gst, 0.35 μM of forward ([…]) and reverse primer (ATCACGGACGCCTTCACAG), 3.5 mM MgCl2 and 1 μl of DNA. qPCR was performed using the Bio-Rad CFX384 C1000 thermal cycler (Bio-Rad laboratories LTD) with a denaturation step of 95° C. for 15 min then 40 cycles at 95° C. for 15 s, 57° C. (gst) or 60° C. (wsp) for 30 s, and 72° C. for 30 s. Quantification was determined by Bio-Rad CFX manager software by comparing the DNA samples to that of a standard curve generated from serial dilution of plasmid DNA of the appropriate gene. Data in Table 3 are expressed as a reduction in Wolbachia load in comparison to the vehicle control group and normalized by positive control (doxycycline at 5 μM).

[2] = tested on: Wolbachia in adult Brugia malayi; test: Adult Brugia malayi mouse model, Wolbachia wsp qPCR; assay type: in vivo
From the text: (§1) In an adult Brugia malayi mouse model treatment groups (BALB/c CCR3−/− mice, 6-8 week old) received compounds by oral delivery for 7-28 days beginning at 6-10 weeks post-infection intraperitoneal with Brugia malayi third-stage larvae. Following treatment, at 12 weeks past-infection, adult worms and released microfilariae were recovered from the peritoneal cavity, counted and staged for sex. Genomic DNA was extracted from individual adult worms (10/group) and quantification of the Wolbachia surface protein (wBm-wsp) performed by quantitative PCR.
Treatment dosage unit is mg/kg (MK) and duration stated in days (d). Abbreviations: MIN (minocycline), bid (twice daily), Ms (mesylate). Data in Table 5A are expressed as a reduction in Wolbachia load in comparison to the vehicle control group.
(§2) Table 5B provides a comparison of two stereoisomers in the adult Brugia malayi mouse model above at a range of doses and durations of treatment. Data in Table 5B are expressed as a reduction in Wolbachia load in comparison to the vehicle control group.

[3] = tested on: Brugia malayi microfilariae; test: Adult Brugia malayi mouse model, microfilaria production; assay type: in vivo; details: Table 5B
From the text: as §1, §2

[4] = tested on: Wolbachia in Brugia malayi larvae; test: Larval Brugia malayi mouse model, Wolbachia wsp qPCR; assay type: in vivo; details: BALB/c IL4Rα−/− mice, oral, larvae recovered 14 days post-infection
From the text: In a larval Brugia malayi mouse model treatment groups (BALB/c IL4Rα−/− mice, 6-8 week old) received compounds by oral delivery for 7 to 14 days commencing on the day of intraperitoneal infection with Brugia malayi third-stage larvae. At 14 days post-infection, larvae were recovered from the peritoneal cavity, counted, and length measured. Genomic DNA was extracted from individual worms (10/group) and quantification of the Wolbachia surface protein (wBm-wsp) gene copy numbers performed by quantitative PCR.
Treatment dosage unit is mg/kg (MK) and duration stated in days (d). Abbreviations: DOX (doxycycline), bid (twice daily), Ms (mesylate). Data in Table 4 are expressed as a reduction in Wolbachia load in comparison to the vehicle control group.

[5] = tested on: Wolbachia in adult male Onchocerca ochengi; test: Adult Onchocerca ochengi mouse model, Wolbachia wsp qPCR; assay type: in vivo; details: CB.17(BALB/c) SCID mice implanted with male O. ochengi, oral
From the text: Viable male Onchocerca ochengi were aseptically isolated from naturally parasitized cattle. Between 10-11 male Onchocerca were surgically implanted into the peritoneal cavity of CB.17(BALB/c) SCID mice under anaesthesia. […] 38 Days after O. ochengi surgical implantation, mice were necropsied to recover the live worms. Genomic DNA was extracted from individual adult worms (10/group) and quantification of the O. ochengi-specific Wolbachia surface protein (wsp) performed by quantitative PCR. Data in Table 6 is expressed as a reduction in Wolbachia load in comparison to the vehicle control group.

[6] = concentration stands in the drawing (not visible)
[7] = dose/duration stands in the drawing (not visible)
[8] = Table 5B, two stereoisomers at a range of doses and durations, dose/duration stands in the drawing (not visible)
[9] = two stereoisomers at a range of doses and durations, dose/duration stands in the drawing (not visible)

In the case of `FC1CCN(c2nc(NCc3cccnc3C(F)(F)F)c3cccnc3n2)CC1` [drawing 685], the “% Reduction level normalised to DOX (5 μm)” value (“% Reduction level normalised” below) [1, 6] is reported as 97.4% and the “% Wolbachia reduction cf. DMSO” value [1, 6] is reported as 87.3%.

In the case of `CC1COCCN1c1nc(NCc2cccnc2C(F)(F)F)c2cccnc2n1` (centres unmarked) [drawing 684], the “% Reduction level normalised” value [1, 6] is reported as 99.8% and the “% Wolbachia reduction cf. DMSO” value [1, 6] is reported as 89.4%.

In the case of `CN(C)c1ccc(O)c2c1C[C@H]1C[C@H]3[C@H](N(C)C)C(O)=C(C(N)=O)C(=O)[C@@]3(O)C(O)=C1C2=O` [MIN, minocycline, reference compound], the “% Wolbachia reduction cf median Vehicle” value ([2]; Table 5A, BALB/c CCR3−/− mice, oral, 25 MK bid + 28 d, worms recovered 12 weeks post-infection) is reported as 83.6%, the “% Wolbachia reduction cf median Vehicle” value ([2]; Table 5B, BALB/c CCR3−/− mice, oral, 25 MK bid + 28 d treatment + 14 d wash-out) is reported as 98.2% and the “% Microfilaria (Mf) production reduction cf median Vehicle” value ([3]; BALB/c CCR3−/− mice, oral, 25 MK bid + 28 d treatment + 14 d wash-out) is reported as 100%.

`FC1(F)CCN(c2nc(NCc3cccnc3C(F)(F)F)c3cccnc3n2)CC1` [drawing 686] was tested, and the “% Reduction level normalised” value [1, 6] was 98.2% and the “% Wolbachia reduction cf. DMSO” value [1, 6] was 88.0%.

`CC1COCCN1c1nc(NCc2cccnc2C(F)(F)F)c2cccnc2n1` (centres unmarked) [drawing 689] was tested, and the “% Wolbachia reduction cf median Vehicle” value [4, 7] was 99.91%.

`C[C@H]1COCCN1c1nc(NCc2cccnc2C(F)(F)F)c2cccnc2n1` [drawing 695] was tested, and the “% Wolbachia reduction cf median Vehicle” value [2, 8] was 99.7% and the “% Microfilaria (Mf) production reduction cf median Vehicle” value [3, 9] was 100%.

With `C[C@@H]1COCCN1c1nc(NCc2cccnc2C(F)(F)F)c2cccnc2n1` [drawing 701] the “% Wolbachia reduction cf median Vehicle” value [2, 8] was 82.2% and the “% Microfilaria (Mf) production reduction cf median Vehicle” value [3, 9] was 91.4%.

With `C[C@H]1c2cccc(O)c2C(=O)C2=C(O)[C@]3(O)C(=O)C(C(N)=O)=C(O)[C@@H](N(C)C)[C@@H]3[C@@H](O)[C@@H]21` [DOX, doxycycline, reference compound] the “% Reduction level normalised” value ([1]; 500 nM) was 92.9%, the “% Wolbachia reduction cf. DMSO” value ([1]; 500 nM) was 80.0% and the “% Reduction level normalised” value ([1]; 5 μM) was 100.0%. The “% Wolbachia reduction cf. DMSO” value ([1]; 5 μM) was 89.6%, the “% Wolbachia reduction cf median Vehicle” value ([5]; 25 MK bid + 28 d) was 98.7% and the “% Wolbachia reduction cf median Vehicle” value ([4]; 25 MK bid + 14 d) was 99.05%.

In the case of `C[C@H]1COCCN1c1nc(NCc2cccnc2C(F)(F)F)c2cccnc2n1` [drawing 697], the “% Wolbachia reduction cf median Vehicle” value [2, 8] is reported as 97.8% and the “% Microfilaria (Mf) production reduction cf median Vehicle” value [3, 9] is reported as 100%.

With `CC(C)N(C)c1nc(NCc2cccnc2C(F)(F)F)c2cccnc2n1` [drawing 688] the “% Wolbachia reduction cf median Vehicle” value [4, 7] was 99.99%.

With `C[C@@H]1COCCN1c1nc(NCc2cccnc2C(F)(F)F)c2cccnc2n1` [drawing 699] the “% Wolbachia reduction cf median Vehicle” value [2, 8] was 99.6% and the “% Microfilaria (Mf) production reduction cf median Vehicle” value [3, 9] was 100%.

In the case of `FC1(F)CCN(c2nc(NCc3cccnc3C(F)(F)F)c3cccnc3n2)CC1` [drawing 690], the “% Wolbachia reduction cf median Vehicle” value [4, 7] is reported as 99.84%.

For `C[C@@H]1COCCN1c1nc(NCc2cccnc2C(F)(F)F)c2cccnc2n1` [drawing 698], the “% Wolbachia reduction cf median Vehicle” value [2, 8] was 99.7% and the “% Microfilaria (Mf) production reduction cf median Vehicle” value [3, 9] was 100%.

With `C[C@H]1COCCN1c1nc(NCc2cccnc2C(F)(F)F)c2cccnc2n1` [drawing 696] the “% Wolbachia reduction cf median Vehicle” value [2, 8] was 99.9% and the “% Microfilaria (Mf) production reduction cf median Vehicle” value [3, 9] was 100%.

In the case of `C[C@H]1COCCN1c1nc(NCc2cccnc2C(F)(F)F)c2cccnc2n1` [drawing 702], the “% Wolbachia reduction cf median Vehicle” value [5, 7] is reported as 96.2%.

In the case of `C[C@@H]1COCCN1c1nc(NCc2cccnc2C(F)(F)F)c2cccnc2n1` [drawing 700], the “% Wolbachia reduction cf median Vehicle” value [2, 8] is reported as 86.8% and the “% Microfilaria (Mf) production reduction cf median Vehicle” value [3, 9] is reported as 100%.

In the case of `FC(F)(F)c1ncccc1CNc1nc(N2CCC(Cl)CC2)nc2ncccc12` [drawing 687], the “% Reduction level normalised” value [1, 6] is reported as 92.9% and the “% Wolbachia reduction cf. DMSO” value [1, 6] is reported as 83.3%.
